Counter-ions that a name gives are not always drawn.
melting point	Structure (SMILES)
164 to 166 °C	CN1CCC(O)(c2ccc(F)c(F)c2)C1 (stereo not drawn) (as salt: fumaric acid salt)
129 to 131 °C	CN1CCC(O)(c2cc(F)cc(Cl)c2)C1 (stereo not drawn) (as salt: fumaric acid salt)
143 to 147 °C	CC(C)N1CCC(O)(c2ccc(F)c(F)c2)C1 (stereo not drawn) (as salt: fumaric acid salt)
95 to 98 °C	CCCN1CCC(O)(c2cccc(F)c2F)C1 (stereo not drawn) (as salt: fumaric acid salt) [Example 34]
201 to 202 °C	FC1(c2cc(Cl)cc(Cl)c2)CCNC1 (stereo not drawn) (as salt: hydrochloric acid salt) [Example 14, 3-(3,5-DICHLOROPHENYL)-3-FLUOROPYRROLIDINE]
136 °C	Fc1cccc(C2(F)CCNC2)c1F (stereo not drawn) (as salt: hydrochloric acid salt) [Example 23, 3-(2,3-DIFLUOROPHENYL)-3-FLUOROPYRROLIDINE]
117 to 119 °C	CN1CCC(O)(c2ccc(F)cc2F)C1 (stereo not drawn) (as salt: oxalic acid salt)
157.2 °C	CCCN1CCC(O)(c2cc(F)cc(Cl)c2)C1 (stereo not drawn) (as salt: oxalic acid salt)
146 to 147 °C	CCCCN1CCC(O)(c2cc(F)cc(F)c2)C1 (stereo not drawn) (as salt: oxalic acid salt)
128 to 129 °C	CN1CCC(F)(c2cc(F)cc(F)c2)C1 (stereo not drawn) (as salt: oxalic acid salt) [Example 11, 3-(3,5-DIFLUOROPHENYL)-3-FLUORO-1-METHYLPYRROLIDINE]
176 to 177 °C	Fc1cc(F)cc(C2(F)CCNC2)c1 (stereo not drawn) (as salt: oxalic acid salt) [Example 13, 3-(3,5-DIFLUOROPHENYL)-3-FLUOROPYRROLIDINE]
159 to 162 °C	CN1CCC(O)(c2cc(F)cc(F)c2)C1 (stereo not drawn) (as salt: oxalic acid salt) [Example 18]
134.3 °C	CN1CCC(O)(c2cccc(F)c2F)C1 (stereo not drawn) (as salt: oxalic acid salt) [Example 40]
120 °C	C=CCN1CCC(O)(c2cccc(F)c2F)C1 (stereo not drawn) (as salt: oxalic acid salt) [Example 41]
102 to 103 °C	C=CCN1CCC(O)(c2cc(F)cc(F)c2)C1 (stereo not drawn) (as salt: oxalic acid salt) [Example 44]
162 to 163 °C	CC(C)CN1CCC(O)(c2cc(F)cc(F)c2)C1 (stereo not drawn) (as salt: oxalic acid salt) [Example 46]
134 to 135 °C	CN1CCC(O)(c2cc(F)cc(F)c2)C1 (stereo not drawn) (as salt: oxalic acid salt) [Example 47]
150 °C	CN1CCC(O)(c2cc(F)cc(F)c2)C1 (stereo not drawn) (as salt: oxalic acid salt) [Example 52]
164 to 165 °C	CC(C)CN1CCC(O)(c2cc(F)cc(F)c2)C1 (stereo not drawn) (as salt: oxalic acid salt) [Example 53]
104 to 105 °C	C=CCN1CCC(O)(c2cc(F)cc(F)c2)C1 (stereo not drawn) (as salt: oxalic acid salt) [Example 55]
131 to 132 °C	CN1CCC(O)(c2cccc(F)c2F)C1 (stereo not drawn) (as salt: oxalic acid salt) [Example 59]
119 to 120 °C	C=CCN1CCC(O)(c2cccc(F)c2F)C1 (stereo not drawn) (as salt: oxalic acid salt) [Example 62]

The next lines start with the compound.

Structure (SMILES)	melting point
CCN1CCC(O)(c2cccc(Cl)c2F)C1 (stereo not drawn) (as salt: fumaric acid salt)	142 to 145.5 °C
CCCN1CCC(O)(c2ccc(F)c(Cl)c2)C1 (stereo not drawn) (as salt: fumaric acid salt)	157.9 °C
CCN1CCC(O)(c2ccc(F)c(F)c2)C1 (stereo not drawn) (as salt: fumaric acid salt)	136 to 137 °C
CCN1CCC(O)(c2ccc(F)c(Cl)c2)C1 (stereo not drawn) (as salt: fumaric acid salt) [Example 3, 3-(3-CHLORO-4-FLUOROPHENYL)-1-ETHYLPYRROLIDIN-3-OL]	157 to 158 °C
CCN1CCC(O)(c2cccc(F)c2F)C1 (stereo not drawn) (as salt: fumaric acid salt) [Example 4, 3-(2,3-DIFLUOROPHENYL)-1-ETHYLPYRROLIDIN-3-OL]	119 to 120 °C
CCCN1CCC(O)(c2cc(F)cc(F)c2)C1 (stereo not drawn) (as salt: fumaric acid salt) [Example 9, 3-(3,5-DIFLUOROPHENYL)-1-PROPYLPYRROLIDIN-3-OL]	136 to 137 °C
CCN1CCC(O)(c2ccc(Cl)c(Cl)c2)C1 (stereo not drawn) (as salt: fumaric acid salt) [Example 10, 3-(3,4-DICHLOROPHENYL)-1-ETHYLPYRROLIDIN-3-OL]	184 to 185 °C
CCN1CCC(O)(c2ccc(F)c(F)c2)C1 (stereo not drawn) (as salt: fumaric acid salt) [Example 12, 3-(3,4-DIFLUOROPHENYL)-1-ETHYLPYRROLIDIN-3-OL]	157 to 158 °C
CCCN1CCC(O)(c2ccc(F)c(F)c2)C1 (stereo not drawn) (as salt: fumaric acid salt) [Example 27]	127 to 129 °C
CCCN1CCC(O)(c2ccc(F)c(F)c2)C1 (stereo not drawn) (as salt: fumaric acid salt) [Example 28]	128 to 129 °C
CCCN1CCC(O)(c2cccc(F)c2F)C1 (stereo not drawn) (as salt: fumaric acid salt) [Example 33]	97 to 100 °C
CCN1CCC(O)(c2cccc(Cl)c2Cl)C1 (stereo not drawn) (as salt: oxalic acid salt)	206 to 207 °C
CN1CCC(O)(c2cccc(Cl)c2F)C1 (stereo not drawn) (as salt: oxalic acid salt)	123 to 125 °C
CCN1CCC(O)(c2cc(F)cc(Cl)c2)C1 (stereo not drawn) (as salt: oxalic acid salt) [Example 5, 3-(3-CHLORO-5-FLUOROPHENYL)-1-ETHYLPYRROLIDIN-3-OL]	169 to 170 °C
CCCN1CCC(O)(c2ccc(F)c(F)c2)C1 (stereo not drawn) (as salt: oxalic acid salt) [Example 7, 3-(3,4-DIFLUOROPHENYL)-1-PROPYLPYRROLIDIN-3-OL]	131 to 132 °C
CCCN1CCC(O)(c2cc(F)cc(F)c2)C1 (stereo not drawn) (as salt: oxalic acid salt) [Example 29]	117 to 118 °C
CCCN1CCC(O)(c2cc(F)cc(F)c2)C1 (stereo not drawn) (as salt: oxalic acid salt) [Example 30]	118 to 119 °C
CCN1CCC(O)(c2cc(F)cc(Cl)c2)C1 (stereo not drawn) (as salt: oxalic acid salt) [Example 31]	117 to 118 °C
CCN1CCC(O)(c2cccc(Cl)c2F)C1 (stereo not drawn) (as salt: oxalic acid salt) [Example 35]	71 to 74 °C
CCN1CCC(O)(c2cccc(Cl)c2F)C1 (stereo not drawn) (as salt: oxalic acid salt) [Example 37]	72 to 74 °C
CCCCN1CCC(O)(c2cccc(F)c2F)C1 (stereo not drawn) (as salt: oxalic acid salt) [Example 38]	155.3 °C
CC(C)CN1CCC(O)(c2cccc(F)c2F)C1 (stereo not drawn) (as salt: oxalic acid salt) [Example 39]	176 °C
OC1(c2cccc(F)c2F)CCN(CC2CC2)C1 (stereo not drawn) (as salt: oxalic acid salt) [Example 49]	172.8 °C
CCCCN1CCC(O)(c2cccc(F)c2F)C1 (stereo not drawn) (as salt: oxalic acid salt) [Example 58]	157 to 158 °C
CC(C)CN1CCC(O)(c2cccc(F)c2F)C1 (stereo not drawn) (as salt: oxalic acid salt) [Example 61]	168 to 169 °C
OC1(c2cccc(F)c2F)CCN(CC2CC2)C1 (stereo not drawn) (as salt: oxalic acid salt) [Example 64]	170 to 171 °C
